Laboratory results reported in US8536137B2, “Methods for treating nucleoside-induced pain” (UCB Pharma GmbH, priority 2004, dated 2013).

Key:
[1] = tested on: rats intoxicated with anti-retroviral nucleoside analogue AIDS therapy drugs; settings: intoxicated animals; literature report; cited from earlier work
[2] = tested on: vincristine-rats; experiment: Vincristine-induced pain model: cold bath test (thermal allodynia); format: in vivo, rat; settings: day 17; for threshold latency in cold bath test vs vincristine/vehicle: 30 min before test
Protocol: (§1) For this study, 86 female Dark Agouti rats (150-200 g) were used (Harlan, Gannat, France), They were group-housed (3 animals per cage) and maintained in a room with controlled temperature (21-22° C.) and a reversed light-dark cycle (12 h/12 h) with food and water available ad libitum. All experiments were carried out in accordance with institutional guidelines. Vincristine intoxication was achieved by daily injection of vincristine (0.15 mg/kg/d, i.p.) from day 1 to 5, from day 8 to 12 and days 15 to 16. On day 17, animals were submitted to the behavioral test and received pharmacological treatment.
(§2) Animals were placed on ice platform submerged approximately 1 cm below the surface of cold water (4° C.), such that the hairy and glabrous skin of the animal feet was in contact with the cold water. The latency before the first reaction (licking, moving the paws, little leaps) was recorded with a cut off time of 30 s.
(§3) ANOVA followed by post-hoc analysis (Dunneft's test) was used to compare groups of behavioral data in each individual time points.

[3] = tested on: vincristine-rats; experiment: Vincristine-induced pain model: hot plate test at 38° C. (thermal allodynia); format: in vivo, rat; settings: day 17
Protocol: as §1
(§4) Animals were placed into a glass cylinder on a hot plate (Bioblock, France) adjusted to 38° C. or 52° C. The latency of the first reaction (licking, moving the paws, little leaps or a jump to escape the heat) was recorded with a cut off time of 30 s.
as §3

[4] = tested on: vincristine-rats; experiment: Vincristine-induced pain model: paw pressure test (mechanical hyperalgesia); format: in vivo, rat; settings: day 17; for paw withdrawal latency in paw pressure test (Randall & Selitto): p<0.05 Dunnett's
Protocol: as §1
(§5) The nociceptive flexion reflex was quantified using the Randall-Selitto paw pressure device (Bioseb, France), which applies a linearly increasing mechanical force to the dorsum of the rat's hind paw. The mechanical nociceptive threshold was defined as the force in grams at which the rat withdrew its paw. The cut off pressure was set to 250 g.
as §3

[5] = tested on: vincristine-rats; experiment: Vincristine-induced pain model: von Frey hair stimulation test (mechanical allodynia); format: in vivo, rat; settings: day 17; for paw withdrawal latency in von Frey filament test, difference with vehicle-treated group: p<0.05 Dunnett's
Protocol: as §1
(§6) Rats were placed on a metallic grid floor. The nociceptive testing was done by inserting the von Frey filament (Bioseb, France) through the grid floor and applying it to the plantar surface of the hind paw. A trial consisted of several applications of the different von Frey filaments (at a frequency of 1-1.5 s). The von Frey filaments were applied from filament 10 g to 100 g. The mechanical allodynia threshold was recorded as soon as the animal removed its hind paw the test was stopped and the filament number was recorded.
as §3

[6] = tested on: ddC-rats; experiment: Nucleoside-induced pain model (ddC): cold bath test (thermal allodynia); format: in vivo, rat; settings: for threshold latency in cold bath test vs ddC/vehicle: p<0.05 Dunnett's, comparable to control animals
Protocol: as §2, §3
(§7) For this study, 50 male Sprague Dawley (˜220 g) rats were used (Janvier, Le Genest-St-isle, France). Rats were group-housed (3 animals per cage) and maintained in a room with controlled temperature (21-22° C.) and a reversed light-dark cycle (12 h/12 h) with food and water available ad libitum. All experiments were carried out in accordance with institutional guidelines. Intoxication was achieved by a single injection of ddC (50 mg/kg, I.V. in tail vein).

[7] = tested on: ddC-rats; experiment: Nucleoside-induced pain model (ddC): brushing test at day 20 (mechanical allodynia); format: in vivo, rat
Protocol: as §3, §7
The hair on the legs, flanks, and lower back was sequentially brushed with a cotton-tipped applicator using an oscillating motion (rate of 1-2/s; 30 sec). Brushing was done with no more force than required to move the applicator through the hair such that only the pelage is disturbed. Vocalization and moderate effects to avoid the brushing were counted.

[8] = tested on: ddC-rats; experiment: Nucleoside-induced pain model (ddC): von Frey filament test at D10 (mechanical allodynia); format: in vivo, rat; settings: for paw withdrawal latency in von Frey filament test, difference with vehicle-treated group: p<0.05, level comparable to control group
Protocol: as §6, §3, §7

[9] = tested on: ddC-rats; experiment: Nucleoside-induced pain model (ddC): paw pressure test at D10 (mechanical hyperalgesia); format: in vivo, rat; settings: p<0.05 Dunnett's
Source text: as §5, §3, §7

[10] = tested on: bone cancer rats (MRMT-1 rat mammary gland carcinoma cells injected into the tibia); experiment: Bone cancer rat model: thermal paw stimulation (thermal hyperalgesia); format: in vivo; settings: SPM 927 30 mg/kg, days 14 and 15; Dunnett's p<0.001
Protocol: Cells were cultured in medium containing RPMI-1640 (Gibco, 500 ml), 10% heat-inactivated fetal bovine serum (Hyclone), L-glutamine (final concentration 2 mM, from Gibco) and antibiotic solution (final concentration 100 U/ml penicillin and 100 ug/ml streptomycin sulfate, from Gibco). Cells were released from the tissue culture flask by brief exposure to 0.1% trypsin so (Gibco) and then prepared for injection as follows: cells were centrifuged for 10 minutes at approximately 1,200 rpm. The resulting pellet was washed twice in Phosphate Buffered Saline (PBS, Mediatech) containing no calcium or magnesium. Final pellet was re-suspended in PBS and cell count taken using a hemocytometer. Cells were diluted to achieve final concentrations for injection and kept on ice until injection was performed.
After one week of quarantine, either culture media or 3×10^4 syngeneic MRMT-1 rat mammary gland carcinoma cells were injected into the medullary cavity of the proximal tibia of each rat. Procedurally, the animal was first anesthetized with ketamine/xylazine and the right leg area shaved and treated with an iodine solution and cleaned with a 70% ethanol solution. A 1-cm rostral-caudal incision was made in the skin over the top half of the tibia. […]
On days 7, 8, 14 and 15, pain assessment tests were performed. […] The animals were first evaluated for mechanical allodynia and then thermal hyperalgesia. […]

[11] = tested on: bone cancer rats (MRMT-1 rat mammary gland carcinoma cells injected into the tibia); experiment: Bone cancer rat model: weight bearing difference (mechanical hyperalgesia); format: in vivo; settings: SPM 927 40 mg/kg, following treatment; p<0.05
Protocol: After one week of quarantine, either culture media or 3×10^4 syngeneic MRMT-1 rat mammary gland carcinoma cells were injected into the medullary cavity of the proximal tibia of each rat. Procedurally, the animal was first anesthetized with ketamine/xylazine and the right leg area shaved and treated with an iodine solution and cleaned with a 70% ethanol solution. A 1-cm rostral-caudal incision was made in the skin over the top half of the tibia. Blunt-dissection was performed to expose the tibia, ensuring minimal damage to muscles or blood vessels. Using a 23-gauge needle, the tibia was pierced. […] The needle was inserted at an angle to enable it to be pushed down into the intramedullary canal of the bone. Once a pathway to the intramedullary canal was opened, the 23-gauge needle was removed and replaced by a blunt needle attached to a 5 μl Hamilton syringe. […]
On days 7, 8, 14 and 15, pain assessment tests were performed. […] The animals were first evaluated for mechanical allodynia and then thermal hyperalgesia. […] The animals were first evaluated for baseline weight bearing responses. […]
After the animals in groups 4-6 were re-randomized to drug treatment groups, on day 9, 15 all animals underwent weight-bearing testing. Weight bearing of affected hind limbs was assessed as the difference in weight borne by the ipsilateral compared to the contralateral limb. […]

[12] = tested on: vincristine-rats; experiment: Vincristine-induced pain model: hot plate test at 52° C. (thermal hyperalgesia); format: in vivo, rat; settings: day 17, p<0.05 Dunnett's, comparable with control
Protocol: as §1, §4, §3

[13] = tested on: ddC-rats; experiment: Nucleoside-induced pain model (ddC): hot plate test at 52° C. at D20 (thermal hyperalgesia); format: in vivo, rat
Protocol: as §4, §3, §7

[14] = tested on: rat model of bone cancer pain, chemotherapy- and nucleoside-induced pain; experiment: Overall summary of the bone cancer, chemotherapy-induced and nucleoside-induced pain models; format: in vivo; settings: across the three rat models
Source text: The effect of systemic administration of SPM 927 was examined in rats in a tumor-induced bone cancer pain model, in a chemotherapy-induced and a nucleoside analogue-induced neuropathic pain model. SPM 927 reduced mechanical and thermal hyperalgesia as well as mechanical and thermal allodynia in these models.

For `CCN(CC)CCCCCCCCOC(=O)c1cc(OC)c(OC)c(OC)c1` [TMB-8], the “reversal of nucleoside reverse transcriptase inhibitor-induced hypersensitivity” value [1] is given as “capable of reversing”.
In the case of `CN1CC[C@]23c4c5ccc(O)c4O[C@H]2[C@@H](O)C=C[C@H]3[C@H]1C5` [morphine, reference compound], the “threshold latency in cold bath test, level reached” value ([2]; morphine 3 mg/kg s.c., 45 min before test) is reported as “far above that obtained from control rats”, the “threshold latency in hot plate (38° C.) test, level reached” value ([3]; morphine 3 mg/kg s.c.) is reported as “comparable with that of control rats” and the “performance in paw pressure test (Randall & Selitto)” value ([4]; morphine 3 mg/kg s.c., p>0.05) is reported as “did not modify the performance”. The “performance in von Frey filament test” value ([5]; morphine 3 mg/kg s.c.) was “restored the performance of vincristine-rats to a level comparable with that of control group”, the “threshold latency in cold bath test, level reached” value ([6]; morphine 3 mg/kg s.c.) was “comparable to that obtained from control rats” and the “total number of cries in brushing test” value ([7]; morphine 3 mg/kg s.c., D 20) was “significantly decrease”. For the same molecule, the “performance in von Frey filament test” value ([8]; morphine 3 mg/kg s.c.) was “restored the performance of ddC-rats to a level similar to control group” and the “performance in paw pressure test (Randall & Selitto)” value ([9]; morphine 3 mg/kg s.c.) was “increased the performance”.
With `COC[C@@H](NC(C)=O)C(=O)NCc1ccccc1` [SPM 927, (R)-2-acetamide-N-benzyl-3-methoxypropionamide] the “latency to remove paw (thermal paw testing), post-treatment vs 'cells only'” value [10] was “different”, the “amount of weight placed on contralateral paw (weight bearing difference) vs 'cells only' group” value [11] was “significant reduction” and the “threshold latency in cold bath test vs vincristine/vehicle” value ([2]; SPM 927 3 mg/kg i.p., slightly greater than vincristine-animals) was “statistical difference was not reached”. The “threshold latency in cold bath test vs vincristine/vehicle” value ([2]; SPM 927 10 mg/kg i.p., p<0.05 Dunnett's, comparable to control animals) was “significant increase”, the “threshold latency in cold bath test vs vincristine/vehicle” value ([2]; SPM 927 30 mg/kg i.p., p<0.05 Dunnett's, comparable to control animals) was “significant increase” and the “threshold latency in hot plate (38° C.) test vs vincristine/vehicle” value ([3]; SPM 927 3 mg/kg i.p.) was “significant (p<0.05, Dunneft's test) increase”. For the same molecule, the “threshold latency in hot plate (38° C.) test vs vincristine/vehicle” value ([3]; SPM 927 10 mg/kg i.p., comparable with control animals) was “significant (p<0.05, Dunneft's test) increase”, the “threshold latency in hot plate (38° C.) test vs vincristine/vehicle” value ([3]; SPM 927 30 mg/kg i.p., comparable with control animals) was “significant (p<0.05, Dunneft's test) increase” and the “paw withdrawal latency in hot plate test at 52° C. vs vehicle-treated animals” value ([12]; SPM 927 3 mg/kg i.p.) was “significant increase”. For the same molecule, the “paw withdrawal latency in hot plate test at 52° C. vs vehicle-treated animals” value ([12]; SPM 927 10 mg/kg i.p.) was “significant increase”, the “paw withdrawal latency in hot plate test at 52° C. vs vehicle-treated animals” value ([12]; SPM 927 30 mg/kg i.p.) was “significant increase” and the “paw withdrawal latency in paw pressure test (Randall & Selitto)” value (from here on “paw withdrawal latency … (Randall & Selitto)”) ([4]; SPM 927 10 mg/kg i.p.) was “significant increase”. The “paw withdrawal latency … (Randall & Selitto)” value ([4]; SPM 927 30 mg/kg i.p.) was “significant increase”, the “paw withdrawal latency in von Frey filament test, difference with vehicle-treated group” value ([5]; SPM 927 10 mg/kg i.p.) was “reached the significance level” and the “paw withdrawal latency in von Frey filament test, difference with vehicle-treated group” value ([5]; SPM 927 30 mg/kg i.p.) was “reached the significance level”. The “threshold latency in cold bath test vs ddC/vehicle” value (shortened to “threshold latency … vs ddC/vehicle”) ([6]; SPM 927 3 mg/kg i.p.) was “significant increase”, the “threshold latency … vs ddC/vehicle” value ([6]; SPM 927 10 mg/kg i.p.) was “significant increase” and the “threshold latency … vs ddC/vehicle” value ([6]; SPM 927 30 mg/kg i.p.) was “significant increase”. The “total number of cries in brushing test” value ([7]; SPM 927 3 mg/kg i.p., D 20, p<0.05 Dunnett's) was “significant decrease”, the “total number of cries in brushing test” value ([7]; SPM 927 10 mg/kg i.p., D 20, p<0.05 Dunnett's) was “significant decrease” and the “total number of cries in brushing test” value ([7]; SPM 927 30 mg/kg i.p., D20, p<0.05 Dunnett's) was “significant decrease”. The “paw withdrawal latency in von Frey filament test, difference with vehicle-treated group” value ([8]; SPM 927 3 mg/kg i.p.) was “reached the significance level”, the “paw withdrawal latency in von Frey filament test, difference with vehicle-treated group” value ([8]; SPM 927 10 mg/kg i.p.) was “reached the significance level” and the “paw withdrawal latency in von Frey filament test, difference with vehicle-treated group” value ([8]; SPM 927 30 mg/kg i.p.) was “reached the significance level”. The “paw withdrawal latency in hot plate test at 52° C., effect” value ([13]; SPM 927 3 mg/kg i.p.) was “comparable with untreated vehicle group”, the “paw withdrawal latency in hot plate test at 52° C., effect” value ([13]; SPM 927 10 mg/kg i.p.) was “comparable with untreated vehicle group” and the “paw withdrawal latency in hot plate test at 52° C. vs vehicle-treated animals” value ([13]; SPM 927 30 mg/kg i.p., p<0.05 Dunnett's) was “significant increase”. For the same molecule, the “paw withdrawal latency … (Randall & Selitto)” value ([9]; SPM 927 3 mg/kg i.p.) was “significant increase”, the “paw withdrawal latency … (Randall & Selitto)” value ([9]; SPM 927 10 mg/kg i.p.) was “significant increase” and the “paw withdrawal latency … (Randall & Selitto)” value ([9]; SPM 927 30 mg/kg i.p.) was “significant increase”. For the same molecule, the “analgesic activity compared with morphine” value ([14]; systemic administration) was “overall more active than morphine” and the “anti-allodynic and anti-hyperalgesic effect” value ([14]; systemic, single dose administration) was “dose-dependent”.
In the case of `COc1cc(N(CC(=O)O)CC(=O)O)c2nc(COc3cc(C)ccc3N(CC(=O)O)CC(=O)O)ccc2c1` [Quin-2], the “reversal of nucleoside reverse transcriptase inhibitor-induced hypersensitivity” value [1] is listed as “capable of reversing”.
